Assay results taken from patent US20250041380A1, “R[…] FOR SARS-COV2 DISEASE” (priority 2021, published 2025).
Read-outs that look alike come from different tables or passages of the source.

Experiments:
[1] = in vitro; type: cell-based, Human; conditions: human, 1 μM
Procedure: (§1) A549 cells were plated in DMEM+10% FBS at a density of 10,000 cells/well in 96-well culture plates and incubated at 37° C. for 24 h. THP-1 cells were plated in RPMI+10% FBS at a density of 10,000 cells/well in 96-well culture plates and incubated at 37° C. for 24 h. Cells were sera-starved for 24 h. […] Untreated cells were used as control. Cells treated with dexamethasone and hydroxychloroquine were included as positive control. After treatment, cells were incubated in a 5% CO2 incubator for 48 h.

[2] = system: Immune (THP-1) cells; assay: in vitro; type: cell-based, Human; conditions: 48 h
Procedure: as §1

[3] = in vitro; type: cell-based, Human; conditions: human, 1 μM; remark: listed apart in the source
Procedure: as §1

[4] = system: Lung (A549) cells; assay: in vitro; type: cell-based, Human; conditions: 48 h
Procedure: as §1

[5] = system: Bladder cells (T24); assay: tissue or blood; type: cell-based; conditions: Spike S1 Protein (5 μg/ml)
[6] = system: Cardiac cells (H9C2); assay: cells; type: cell-based; conditions: Spike S1 Protein (5 μg/ml); for inhibition at 0.1 µM / inhibition at 1 µM / inhibition at 10 µM / inhibition at 20 µM: Rattus norvegicus, H9c2
[7] = system: Colon cells (HT-29); assay: cells; type: cell-based; conditions: Spike S1 Protein (1 μg/ml); for inhibition at 0.1 µM / inhibition at 1 µM / inhibition at 10 µM / inhibition at 20 µM: Homo sapiens, HT-29
[8] = system: Endothelial cells (EA.hy926); assay: cells; type: cell-based; conditions: Spike S1 Protein (1 μg/ml); for inhibition at 0.1 µM / inhibition at 1 µM / inhibition at 10 µM / inhibition at 20 µM: Homo sapiens, EA.hy 926
[9] = system: Kidney cells (HEK-293); assay: cells; type: cell-based; conditions: Spike S1 Protein (100 ng/ml); for inhibition at 0.1 µM / inhibition at 1 µM / inhibition at 10 µM / inhibition at 20 µM: Homo sapiens, HEK293
[10] = system: Bone cells (MG-63); assay: cells; type: cell-based; conditions: Spike S1 Protein (10 μg/ml); for inhibition at 0.1 µM / inhibition at 1 µM / inhibition at 10 µM / inhibition at 20 µM: Homo sapiens, MG-63
[11] = system: liver cells (HepG2); assay: cells; type: cell-based; conditions: Spike S1 Protein (20 μg/ml)
[12] = system: pancreatic cells (PANC-1); assay: cells; type: cell-based; conditions: Spike S1 Protein (20 μg/ml)+
[13] = 0.1 μM, read-out: % Inhibition (IL-6)
[14] = 0.1 μM, read-out: % Inhibition (IL-8)
[15] = 1 μM, read-out: % Inhibition (IL-6)
[16] = 1 μM, read-out: % Inhibition (IL-8)
[17] = 10 μM, read-out: % Inhibition (IL-6)
[18] = 10 μM, read-out: % Inhibition (IL-8)
[19] = 20 μM, read-out: % Inhibition (IL-6)
[20] = 20 μM, read-out: % Inhibition (IL-8)
[21] = 0.1 μM, read-out: % Inhibition (wrt Control), IL-6
[22] = 0.1 μM, read-out: % Inhibition (wrt Control), IL-8
[23] = 1 μM, read-out: % Inhibition (wrt Control), IL-6
[24] = 1 μM, read-out: % Inhibition (wrt Control), IL-8
[25] = 10 μM, read-out: % Inhibition (wrt Control), IL-6
[26] = 10 μM, read-out: % Inhibition (wrt Control), IL-8
[27] = 20 μM, read-out: % Inhibition (wrt Control), IL-6
[28] = 20 μM, read-out: % Inhibition (wrt Control), IL-8

For `CCN(CCO)CCCC(C)Nc1ccnc2cc(Cl)ccc12` (stereo not shown) [Hydroxychloroquine sulphate], the cytotoxicity at 48 h, 1 µM [1] was -5.2%, the “% Viability” value ([2]; 0.1 μM) was 113.4% and the “% Viability” value ([2]; 1 μM) was 105.2%. The “% Viability” value ([2]; 5 μM) was 95.8%, the “% Viability” value ([2]; 10 μM) was 104.8% and the “% Viability” value ([2]; 20 μM) was 89.3%. For the same molecule, the cytotoxicity at 48 h, 1 µM [3] was -5.2%, the “% Viability” value ([4]; 0.1 μM) was 79.0% and the “% Viability” value ([4]; 1 μM) was 105.2%. The “% Viability” value ([4]; 5 μM) was 101.0%, the “% Viability” value ([4]; 10 μM) was 110.9% and the “% Viability” value ([4]; 20 μM) was 72.4%. The “Con. of IL-8” value ([5]; 0.1 μM) was 2661.3, the “Conc. of IL-6” value ([5]; 0.1 μM) was 432.0 and the inhibition at 0.1 µM [5, 13] was 25.2%. The inhibition at 0.1 µM [5, 14] was 37.7%, the “Con. of IL-8” value ([5]; 1 μM) was 2527.7 and the “Conc. of IL-6” value ([5]; 1 μM) was 410.8. The inhibition at 1 µM [5, 15] was 28.9%, the inhibition at 1 µM [5, 16] was 40.9% and the “Con. of IL-8” value ([5]; 10 μM) was 2679.5. The “Conc. of IL-6” value ([5]; 10 μM) was 430.2, the inhibition at 10 µM [5, 17] was 25.5% and the inhibition at 10 µM [5, 18] was 37.3%. The “Con. of IL-8” value ([5]; 20 μM) was 2470.0, the “Conc. of IL-6” value ([5]; 20 μM) was 415.8 and the inhibition at 20 µM [5, 19] was 28%. For the same molecule, the inhibition at 20 µM [5, 20] was 42.2%, the “Con. of IL-8” value ([6]; 0.1 μM) was 952.1 and the “Conc. of IL-6” value ([6]; 0.1 μM) was 420.1. For the same molecule, the “Con. of IL-8” value ([6]; 1 μM) was 768.5, the “Conc. of IL-6” value ([6]; 1 μM) was 313.4 and the “Con. of IL-8” value ([6]; 10 μM) was 231.8. The “Conc. of IL-6” value ([6]; 10 μM) was 125.2, the “Con. of IL-8” value ([6]; 20 μM) was 45.5 and the “Conc. of IL-6” value ([6]; 20 μM) was 61.8. For the same molecule, the inhibition at 0.1 µM [6, 13] was 16.9%, the inhibition at 0.1 µM [6, 14] was 33.5% and the inhibition at 1 µM [6, 15] was 38%. The inhibition at 1 µM [6, 16] was 46.3%, the inhibition at 10 µM [6, 17] was 75.2% and the inhibition at 10 µM [6, 18] was 83.8%. For the same molecule, the inhibition at 20 µM [6, 19] was 87.8%, the inhibition at 20 µM [6, 20] was 96.8% and the “Con. of IL-8” value ([7]; 0.1 μM) was 49.1 pg/mL. The “Conc. of IL-6” value ([7]; 0.1 μM) was 114.8 pg/mL, the “Con. of IL-8” value ([7]; 1 μM) was 92.3 pg/mL and the “Conc. of IL-6” value ([7]; 1 μM) was 91.1 pg/mL. For the same molecule, the “Con. of IL-8” value ([7]; 10 μM) was 99.5 pg/mL, the “Conc. of IL-6” value ([7]; 10 μM) was 125.2 pg/mL and the “Con. of IL-8” value ([7]; 20 μM) was 37.6 pg/mL. For the same molecule, the “Conc. of IL-6” value ([7]; 20 μM) was 104.2 pg/mL, the inhibition at 0.1 µM [7, 21] was 51.3% and the inhibition at 0.1 µM [7, 22] was 92.7%. It also gave an inhibition at 1 µM [7, 23] of 61.4%, an inhibition at 1 µM [7, 24] of 86.2% and an inhibition at 10 µM [7, 25] of 46.9%. It also gave an inhibition at 10 µM [7, 26] of 85.2%, an inhibition at 20 µM [7, 27] of 55.8% and an inhibition at 20 µM [7, 28] of 94.4%. The “Con. of IL-8” value ([8]; 0.1 μM) was 826.7 pg/mL, the “Conc. of IL-6” value ([8]; 0.1 μM) was 145.1 pg/mL and the “Con. of IL-8” value ([8]; 1 μM) was 1026.6 pg/mL. For the same molecule, the “Conc. of IL-6” value ([8]; 1 μM) was 200.3 pg/mL, the “Con. of IL-8” value ([8]; 10 μM) was 1756.7 pg/mL and the “Conc. of IL-6” value ([8]; 10 μM) was 64.0 pg/mL. The “Con. of IL-8” value ([8]; 20 μM) was 1573.3 pg/mL, the “Conc. of IL-6” value ([8]; 20 μM) was 58.9 pg/mL and the inhibition at 0.1 µM ([8]; 0.1 μM, read-out: % Inhibition (wrt, IL-6)) was 56.9%. It also gave an inhibition at 0.1 µM ([8]; 0.1 μM, read-out: % Inhibition (wrt, IL-8)) of 48.8%, an inhibition at 1 µM ([8]; 1 μM, read-out: % Inhibition (wrt, IL-6)) of 40.5% and an inhibition at 1 µM ([8]; 1 μM, read-out: % Inhibition (wrt, IL-8)) of 36.5%. For the same molecule, the inhibition at 10 µM ([8]; 10 μM, read-out: % Inhibition (wrt, IL-6)) was 81%, the inhibition at 10 µM ([8]; 10 μM, read-out: % Inhibition (wrt, IL-8)) was 0% and the inhibition at 20 µM ([8]; 20 μM, read-out: % Inhibition (wrt, IL-6)) was 82.5%. The inhibition at 20 µM ([8]; 20 μM, read-out: % Inhibition (wrt, IL-8)) was 2.6%, the “Con. of IL-8” value ([9]; 0.1 μM) was 651.8 pg/mL and the “Conc. of IL-6” value ([9]; 0.1 μM) was 94.2 pg/mL. The “Con. of IL-8” value ([9]; 1 μM) was 678.2 pg/mL, the “Conc. of IL-6” value ([9]; 1 μM) was 97.4 pg/mL and the “Con. of IL-8” value ([9]; 10 μM) was 959.1 pg/mL. For the same molecule, the “Conc. of IL-6” value ([9]; 10 μM) was 137.7 pg/mL, the “Con. of IL-8” value ([9]; 20 μM) was 1809.1 pg/mL and the “Conc. of IL-6” value ([9]; 20 μM) was 260.0 pg/mL. It also gave an inhibition at 0.1 µM [9, 21] of 63.8%, an inhibition at 0.1 µM [9, 22] of 66% and an inhibition at 1 µM [9, 23] of 62.6%. It also gave an inhibition at 1 µM [9, 24] of 64.6%, an inhibition at 10 µM [9, 25] of 47.1% and an inhibition at 10 µM [9, 26] of 49.9%. For the same molecule, the inhibition at 20 µM [9, 27] was 0%, the inhibition at 20 µM [9, 28] was 5.5% and the “Con. of IL-8” value ([10]; 0.1 μM) was 703.3 pg/mL. The “Conc. of IL-6” value ([10]; 0.1 μM) was 136.5 pg/mL, the “Con. of IL-8” value ([10]; 1 μM) was 660.0 pg/mL and the “Conc. of IL-6” value ([10]; 1 μM) was 171.8 pg/mL. The “Con. of IL-8” value ([10]; 10 μM) was 774.4 pg/mL, the “Conc. of IL-6” value ([10]; 10 μM) was 233.8 pg/mL and the “Con. of IL-8” value ([10]; 20 μM) was 1388.3 pg/mL. For the same molecule, the “Conc. of IL-6” value ([10]; 20 μM) was 354.0 pg/mL, the inhibition at 0.1 µM [10, 21] was 14.7% and the inhibition at 0.1 µM [10, 22] was 0.6%. It also gave an inhibition at 1 µM [10, 23] of -7.4%, an inhibition at 1 µM [10, 24] of 6.8% and an inhibition at 10 µM [10, 25] of -46.1%. It also gave an inhibition at 10 µM [10, 26] of -9.4%, an inhibition at 20 µM [10, 27] of -121% and an inhibition at 20 µM [10, 28] of -96.2%. For the same molecule, the “Conc. of IL-8” value ([11]; 0.1 μM) was 117.1 pg/mL, the “Conc. of IL-8” value ([11]; 1 μM) was 193.2 pg/mL and the “Conc. of IL-8” value ([11]; 10 μM) was 162.5 pg/mL. The “Conc. of IL-8” value ([11]; 20 μM) was 103.6 pg/mL, the inhibition at 0.1 µM ([11]; Homo sapiens, HepG2, 0.1 μM, read-out: % Inhibition (wrt Control ), IL-8) was 76.5% and the inhibition at 1 µM ([11]; Homo sapiens, HepG2, 1 μM, read-out: % Inhibition (wrt Control ), IL-8) was 61.3%. For the same molecule, the inhibition at 10 µM ([11]; Homo sapiens, HepG2, 10 μM, read-out: % Inhibition (wrt Control ), IL-8) was 67.4%, the inhibition at 20 µM ([11]; Homo sapiens, HepG2, 20 μM, read-out: % Inhibition (wrt Control ), IL-8) was 79.2% and the “Conc. of IL-8” value ([12]; 0.1 μM) was 214 pg/mL. For the same molecule, the “Conc. of IL-8” value ([12]; 1 μM) was 169.9 pg/mL, the “Conc. of IL-8” value ([12]; 10 μM) was 200.5 pg/mL and the “Conc. of IL-8” value ([12]; 20 μM) was 203 pg/mL. It also gave an inhibition at 0.1 µM ([12]; Homo sapiens, PANC-1, 0.1 μM, read-out: % Inhibition (wrt Control ), IL-8) of 71.3%, an inhibition at 1 µM ([12]; Homo sapiens, PANC-1, 1 μM, read-out: % Inhibition (wrt Control ), IL-8) of 77.2% and an inhibition at 10 µM ([12]; Homo sapiens, PANC-1, 10 μM, read-out: % Inhibition (wrt Control ), IL-8) of 73.1%. It also gave an inhibition at 20 µM ([12]; Homo sapiens, PANC-1, 20 μM, read-out: % Inhibition (wrt Control ), IL-8) of 72.8%.
